Test results as given in patent US11548871B2, “Triazole carbamate pyridyl sulfonamides as LPA receptor antagonists and uses thereof” (Gilead Sciences, Inc., priority 2019, dated 2023).

Molecular target: human LPAR1 (Homo sapiens, UniProt Q92633)
Assay: LPAR1 intracellular calcium mobilization assay (antagonist mode)
Method: In vitro LPAR1 activity was measured in an intracellular calcium mobilization assay.
Prior to testing cell media were aspirated from the cells and replaced with 20 μL Calcium Dye Loading Buffer (DiscoverX Calcium NoWash^PLUS Assay Kit cat #90-0091) and 2.5 mM Probenecid (Sigma Aldrich cat #P8761, prepared fresh) in HBSS/20 mM Hepes for 60 min at 37° C.
For agonist dose curves, cells were removed from the incubator after dye loading and 10 μL HBSS/20 mM Hepes including 3× vehicle was added. Cells were incubated for 30 min at room temperature in the dark to equilibrate plate temperatures. An intermediate LPA dilution series was prepared in assay buffer to generate 4× stock. Calcium mobilization was monitored on a FLIPR Tetra (MDS, San Jose, Calif.) for 2 min and 10 μL 4×LPA in HBSS/20 mM Hepes was added to the cells 5 s into the assay.
An intermediate antagonist dilution series was prepared as 3× samples in assay buffer. After dye loading, cells were removed from the incubator and 10 μL 3× antagonist was added. Cells were incubated for 30 min at room temperature in the dark to equilibrate plate temperatures. The final vehicle (DMSO) concentration was 1%. Compound antagonist activities was measured on a FLIPR Tetra. Calcium mobilization was monitored for 2 min and 10 μL EC80 agonist in HBSS/20 mM Hepes was added to the cells 5 s into the assay. Compound activity was analyzed using CBIS data analysis suite (ChemInnovation Software, San Diego, Calif.).

Chain of human LPAR1 (Q92633 whole entry): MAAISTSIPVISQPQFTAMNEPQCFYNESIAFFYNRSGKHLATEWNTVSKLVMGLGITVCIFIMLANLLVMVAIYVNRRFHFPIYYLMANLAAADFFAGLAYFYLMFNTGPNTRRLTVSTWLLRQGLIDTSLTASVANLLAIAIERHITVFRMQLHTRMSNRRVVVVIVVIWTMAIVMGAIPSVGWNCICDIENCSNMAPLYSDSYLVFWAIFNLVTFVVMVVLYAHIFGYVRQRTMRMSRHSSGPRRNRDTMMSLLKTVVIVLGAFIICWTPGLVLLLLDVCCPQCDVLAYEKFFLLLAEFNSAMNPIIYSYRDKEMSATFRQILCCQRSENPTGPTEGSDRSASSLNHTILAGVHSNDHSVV

Row | EC50 [nM] | SMILES
1 | 90.6 | Cc1nc(-c2nnn(C)c2NC(=O)O[C@@H](c2ccccc2F)C(F)F)ccc1NS(C)(=O)=O [Compound 54, (S)-2,2-difluoro-1-(2-fluorophenyl)ethyl (1-methyl-4-(6-methyl-5-(methylsulfonamido)pyridin-2-yl)-1H-1,2,3-triazol-5-yl)carbamate]
2 | 106 | Cc1ncc(F)cc1[C@@H](C)OC(=O)Nc1c(-c2ccc(NS(C)(=O)=O)cn2)nnn1C [Compound 112, (R)-1-(5-fluoro-2-methylpyridin-3-yl)ethyl (1-methyl-4-(5-(methylsulfonamido)pyridin-2-yl)-1H-1,2,3-triazol-5-yl)carbamate]
3 | 115 | Cc1nc(-c2nnn(C)c2NC(=O)O[C@H](C)CC(C)C)ccc1NS(C)(=O)=O [Compound 72, (R)-4-methylpentan-2-yl (1-methyl-4-(6-methyl-5-(methylsulfonamido)pyridin-2-yl)-1H-1,2,3-triazol-5-yl)carbamate]
4 | 31.4 | C[C@@H](OC(=O)Nc1c(-c2ncc(NS(C)(=O)=O)cc2F)nnn1C)c1ccccc1Cl [Compound 89, (R)-1-(2-chlorophenyl)ethyl(4-(3-fluoro-5-(methylsulfonamido)pyridin-2-yl)-1-methyl-1H-1,2,3-triazol-5-yl)carbamate]
5 | 265 | Cc1nc(-c2nnn(C)c2NC(=O)O[C@H](C)c2cccnc2F)ccc1NS(C)(=O)=O [Compound 128, (R)-1-(2-fluoropyridin-3-yl)ethyl (1-methyl-4-(6-methyl-5-(methylsulfonamido)pyridin-2-yl)-1H-1,2,3-triazol-5-yl)carbamate]
6 | 172 | Cc1cccc(COC(=O)Nc2c(-c3ccc(NS(C)(=O)=O)c(C)n3)nnn2C)c1 [Compound 37, 3-methylbenzyl (1-methyl-4-(6-methyl-5-(methylsulfonamido)pyridin-2-yl)-1H-1,2,3-triazol-5-yl)carbamate]
7 | 64.9 | CSc1ccccc1[C@@H](C)OC(=O)Nc1c(-c2ccc(NS(C)(=O)=O)c(C)n2)nnn1C [Compound 55, (R)-1-(2-(methylthio)phenyl)ethyl (1-methyl-4-(6-methyl-5-(methylsulfonamido)pyridin-2-yl)-1H-1,2,3-triazol-5-yl)carbamate]
8 | 59.9 | Cc1nc(-c2nnn(C)c2NC(=O)O[C@H](C)c2cc(Cl)ccc2F)ccc1NS(C)(=O)=O [Compound 56, (R)-1-(5-chloro-2-fluorophenyl)ethyl (1-methyl-4-(6-methyl-5-(methylsulfonamido)pyridin-2-yl)-1H-1,2,3-triazol-5-yl)carbamate]
9 | 323 | COc1nc(-c2nnn(C)c2NC(=O)O[C@H](C)c2ccccc2)ccc1NS(C)(=O)=O [Compound 1, (R)-1-phenylethyl (4-(6-methoxy-5-(methylsulfonamido)pyridin-2-yl)-1-methyl-1H-1,2,3-triazol-5-yl)carbamate]
10 | 1590 | Cc1nc(-c2nnn(C)c2NC(=O)O[C@H](C)c2cncnc2C)ccc1NS(C)(=O)=O [Compound 70, (R)-1-(4-methylpyrimidin-5-yl)ethyl (1-methyl-4-(6-methyl-5-(methylsulfonamido)pyridin-2-yl)-1H-1,2,3-triazol-5-yl)carbamate]
11 | 5.3 | C[C@@H](OC(=O)Nc1c(-c2ccc(NS(C)(=O)=O)cn2)nnn1C)c1ccccc1F [Compound 16, (R)-1-(2-fluorophenyl)ethyl (1-methyl-4-(5-(methylsulfonamido)pyridin-2-yl)-1H-1,2,3-triazol-5-yl)carbamate]
12 | 66.3 | C[C@@H](OC(=O)Nc1c(-c2ccc(NS(C)(=O)=O)cn2)nnn1C)c1cccc(Cl)c1 [Compound 14, (R)-1-(3-chlorophenyl)ethyl (1-methyl-4-(5-(methylsulfonamido)pyridin-2-yl)-1H-1,2,3-triazol-5-yl)carbamate]
13 | 256 | C[C@@H](OC(=O)Nc1c(-c2ncc(NS(C)(=O)=O)cc2F)nnn1C)c1cccc(F)c1 [Compound 88, (R)-1-(3-fluorophenyl)ethyl(4-(3-fluoro-5-(methylsulfonamido)pyridin-2-yl)-1-methyl-1H-1,2,3-triazol-5-yl)carbamate]
14 | 493 | COCc1nc(-c2nnn(C)c2NC(=O)O[C@H](C)c2cccnc2Cl)ccc1NS(C)(=O)=O [Compound 145, (R)-1-(2-chloropyridin-3-yl)ethyl (4-(6-(methoxymethyl)-5-(methylsulfonamido)pyridin-2-yl)-1-methyl-1H-1,2,3-triazol-5-yl)carbamate]
15 | 1130 | Cc1nc(-c2nnn(C)c2NC(=O)OC(C)c2ccncc2F)ccc1NS(C)(=O)=O (stereo not shown) [Compound 132, 1-(3-fluoropyridin-4-yl)ethyl (1-methyl-4-(6-methyl-5-(methylsulfonamido)pyridin-2-yl)-1H-1,2,3-triazol-5-yl)carbamate]
16 | 31.3 | Cc1nc(-c2nnn(C)c2NC(=O)O[C@H](C)c2cc(F)ccc2Cl)ccc1NS(C)(=O)=O [Compound 60, (R)-1-(2-chloro-5-fluorophenyl)ethyl (1-methyl-4-(6-methyl-5-(methylsulfonamido)pyridin-2-yl)-1H-1,2,3-triazol-5-yl)carbamate]
17 | 540 | Cc1nc(-c2nnn(C)c2NC(=O)N[C@@H](c2ccccc2)C(F)(F)F)ccc1NS(C)(=O)=O [Compound 66, (S)-N-(2-methyl-6-(1-methyl-5-(3-(2,2,2-trifluoro-1-phenylethyl)ureido)-1H-1,2,3-triazol-4-yl)pyridin-3-yl)methanesulfonamide]
18 | 34.3 | C[C@@H](OC(=O)Nc1c(-c2ccc(NS(C)(=O)=O)c(F)n2)nnn1C)c1ccccc1Cl [Compound 5, (R)-1-(2-chlorophenyl)ethyl (4-(6-fluoro-5-(methylsulfonamido)pyridin-2-yl)-1-methyl-1H-1,2,3-triazol-5-yl)carbamate]
19 | 61.7 | COc1nc(-c2nnn(C)c2NC(=O)O[C@H](C)c2ccccc2Cl)ccc1NS(C)(=O)=O [Compound 4, (R)-1-(2-chlorophenyl)ethyl (4-(6-methoxy-5-(methylsulfonamido)pyridin-2-yl)-1-methyl-1H-1,2,3-triazol-5-yl)carbamate]
20 | 18.1 | Cc1nc(-c2nnn(CC#N)c2NC(=O)O[C@H](C)c2ccccc2Cl)ccc1NS(C)(=O)=O [Compound 96, (R)-1-(2-chlorophenyl)ethyl(1-(cyanomethyl)-4-(6-methyl-5-(methylsulfonamido)pyridin-2-yl)-1H-1,2,3-triazol-5-yl)carbamate]
21 | 3220 | Cc1nc(-c2nnn(C)c2NC(=O)OC2c3ccccc3CC2F)ccc1NS(C)(=O)=O (stereo not shown) [Compound 73, 2-fluoro-2,3-dihydro-1H-inden-1-yl (1-methyl-4-(6-methyl-5-(methylsulfonamido)pyridin-2-yl)-1H-1,2,3-triazol-5-yl)carbamate]
22 | 187 | Cc1nc(-c2nnn(C)c2NC(=O)O[C@H](C)c2cc(Br)cnc2F)ccc1NS(C)(=O)=O [Compound 125, (R)-1-(5-bromo-2-fluoropyridin-3-yl)ethyl (1-methyl-4-(6-methyl-5-(methylsulfonamido)pyridin-2-yl)-1H-1,2,3-triazol-5-yl)carbamate]
23 | 271 | Cc1nc(-c2nnn(C)c2NC(=O)OC(C)c2cnc(F)cc2Cl)ccc1NS(C)(=O)=O (stereo not shown) [Compound 129, 1-(4-chloro-6-fluoropyridin-3-yl)ethyl (1-methyl-4-(6-methyl-5-(methylsulfonamido)pyridin-2-yl)-1H-1,2,3-triazol-5-yl)carbamate]
24 | 41.3 | Cc1nc(-c2nnn(C)c2NC(=O)O[C@H](C)c2ccccc2F)ccc1NS(C)(=O)=O [Compound 93, (R)-1-(2-fluorophenyl)ethyl(1-methyl-4-(6-methyl-5-(methylsulfonamido)pyridin-2-yl)-1H-1,2,3-triazol-5-yl)carbamate]
25 | 270 | C[C@@H](OC(=O)Nc1c(-c2ccc(NS(C)(=O)=O)c(Cl)n2)nnn1C)c1ccccc1 [Compound 2, (R)-1-phenylethyl (4-(6-chloro-5-(methylsulfonamido)pyridin-2-yl)-1-methyl-1H-1,2,3-triazol-5-yl)carbamate]
